Consider 24 molecules from patent publication US9617226B2 (AbbVie Deutschland GmbH & Co. KG, priority 2014, dated 2017).

The target of experiment [1] is human vasopressin V1a receptor (Homo sapiens (Human), UniProt P37288). In words: Vasopressin V1a receptor binding assay. The conditions noted are these: selectivity quotient, human V1a vs human V1b. On the procedure:
The test substances were dissolved in a concentration of 5 mM M in DMSO. Further dilution of these DMSO solutions took place as described for V1b.
The membrane pellet was again homogenized in a High-Pressure-Homogenizer, Polytec 50K at 1500 PSI (Heinemann, Germany) and subsequently taken up in 50 mM Tris-HCl, pH 7.4, homogenized and stored in aliquots frozen in liquid nitrogen at −190° C.
The incubation buffer was: 50 mM Tris, 10 mM MgCl2, 0.1% BSA, pH 7.4.
Duplicate determinations were carried out.
After incubation (60 minutes at room temperature), the samples were processed as described for V1b.
The binding parameters were calculated by nonlinear regression in SAS.

Experiment [2] deals with human vasopressin V1b receptor (Homo sapiens (Human), UniProt P47901). The experiment can be described thus: biochemical.
Sequence of human vasopressin V1b receptor (P47901 whole entry): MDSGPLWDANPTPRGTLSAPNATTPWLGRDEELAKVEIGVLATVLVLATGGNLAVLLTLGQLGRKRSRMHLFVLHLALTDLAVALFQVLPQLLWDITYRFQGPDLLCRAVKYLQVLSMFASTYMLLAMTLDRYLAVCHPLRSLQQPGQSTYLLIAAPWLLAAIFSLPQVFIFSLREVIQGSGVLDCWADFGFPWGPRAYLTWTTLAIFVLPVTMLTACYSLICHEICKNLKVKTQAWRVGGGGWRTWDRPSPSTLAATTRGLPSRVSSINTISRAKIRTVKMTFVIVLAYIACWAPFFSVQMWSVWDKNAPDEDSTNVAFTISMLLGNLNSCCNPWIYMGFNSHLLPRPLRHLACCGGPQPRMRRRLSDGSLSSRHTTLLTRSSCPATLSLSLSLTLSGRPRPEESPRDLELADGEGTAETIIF

Sequence of human vasopressin V1a receptor (P37288 whole entry): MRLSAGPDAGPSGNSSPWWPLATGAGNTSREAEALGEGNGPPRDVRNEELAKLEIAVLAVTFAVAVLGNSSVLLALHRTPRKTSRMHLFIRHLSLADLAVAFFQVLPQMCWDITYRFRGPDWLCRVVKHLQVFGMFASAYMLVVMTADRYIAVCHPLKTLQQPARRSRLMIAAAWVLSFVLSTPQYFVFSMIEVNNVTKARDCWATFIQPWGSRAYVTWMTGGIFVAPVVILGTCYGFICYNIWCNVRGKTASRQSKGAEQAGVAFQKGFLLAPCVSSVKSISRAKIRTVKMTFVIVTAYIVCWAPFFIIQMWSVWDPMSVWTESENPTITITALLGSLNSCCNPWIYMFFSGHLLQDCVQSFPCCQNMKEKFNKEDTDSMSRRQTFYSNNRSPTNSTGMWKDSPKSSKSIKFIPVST

On to `CC(C)NC(=O)Cn1c(-c2cccc(Cl)c2)nc2ccc([C@H]3C[C@@H](CN4CCCC(C#N)C4)C3)cc2c1=O` (relative stereo) [Example 14, cis-2-[2-(3-Chlorophenyl)-6-[3-[(3-cyano-1-piperidyl)methyl]cyclobutyl]-4-oxo-quinazolin-3-yl]-N-isopropyl-acetamide], for which the “Ki(h-V1a)/Ki(h-V1b)” value in experiment [1] is given as “+++ (>75)”. Besides, in experiment [2], the Ki is 0.001 to 0.01 µM. The corresponding values for `CC(C)NC(=O)Cn1c(-c2cccc(Cl)c2)nc2ccc([C@H]3C[C@@H](CN4C5CCC4CC(O)C5)C3)cc2c1=O` (relative stereo) [Example 23, cis-2-[2-(3-Chlorophenyl)-6-[3-[(3-hydroxy-8-azabicyclo[3.2.1]octan-8-yl)methyl]cyclobutyl]-4-oxo-quinazolin-3-yl]-N-isopropyl-acetamide] are “+++ (>75)” and 0.001 to 0.01 µM.

In the case of `CC(C)NC(=O)Cn1c(-c2cccc(Cl)c2)nc2ccc([C@H]3C[C@@H](CN4CCCC(F)C4)C3)cc2c1=O` (relative stereo) [Example 39, cis-2-[2-(3-Chlorophenyl)-6-[3-[(3-fluoro-1-piperidyl)methyl]cyclobutyl]-4-oxo-quinazolin-3-yl]-N-isopropyl-acetamide], the “Ki(h-V1a)/Ki(h-V1b)” value in experiment [1] is on record as “+++ (>75)”. The Ki in experiment [2] is 0.001 to 0.01 µM.

In the case of `CC(C)NC(=O)Cn1c(-c2cccc(Cl)c2)nc2ccc([C@H]3C[C@@H](CN4CC(C)OC(C)C4)C3)cc2c1=O` (relative stereo) [Example 43, cis-2-[2-(3-Chlorophenyl)-6-[3-[(2,6-dimethylmorpholin-4-yl)methyl]cyclobutyl]-4-oxo-quinazolin-3-yl]-N-isopropyl-acetamide], the “Ki(h-V1a)/Ki(h-V1b)” value in experiment [1] is “+++ (>75)”. The molecule also came in with a Ki in experiment [2] of 0.01 to 0.1 µM. For `CC(C)NC(=O)Cn1c(-c2cccc(Cl)c2)nc2ccc(C3=CC(CN4CCCCC4)C3)cc2c1=O` (centres unmarked) [Example 1, 2-(2-(3-Chlorophenyl)-4-oxo-6-(3-(piperidin-1-ylmethyl)cyclobut-1-en-1-yl)quinazolin-3(4H)-yl)-N-isopropylacetamide], in that order: “+++ (>75)” and 0.01 to 0.1 µM. With `CC(C)NC(=O)Cn1c(-c2cccc(Cl)c2)nc2ccc([C@H]3C[C@@H](CN4CCCCC4)C3)cc2c1=O` [Example 2a, cis-2-[2-(3-chlorophenyl)-4-oxo-6-[3-(1-piperidylmethyl)cyclobutyl]quinazolin-3-yl]-N-isopropyl-acetamide], in experiment [1], the “Ki(h-V1a)/Ki(h-V1b)” value was “+++ (>75)”. The molecule also came in with a Ki in experiment [2] of 0.001 to 0.01 µM. Turning to `CC(C)NC(=O)Cn1c(-c2cccc(Cl)c2)nc2ccc([C@H]3C[C@H](CN4CCCCC4)C3)cc2c1=O` [Example 2b, trans-2-[2-(3-chlorophenyl)-4-oxo-6-[3-(1-piperidylmethyl)cyclobutyl]quinazolin-3-yl]-N-isopropyl-acetamide], in experiment [1], the “Ki(h-V1a)/Ki(h-V1b)” value is recorded as “+++ (>75)”. In experiment [2], this molecule returned a Ki of 0.01 to 0.1 µM. For `CC(C)NC(=O)Cn1c(-c2cccc(Cl)c2)nc2ccc(C3CC3CCN3CCCCC3)cc2c1=O` (centres unmarked) [Example 3, 2-[2-(3-Chlorophenyl)-4-oxo-6-[2-[2-(1-piperidyl)ethyl]cyclopropyl]quinazolin-3-yl]-N-isopropyl-acetamide], in that order: “++ (25-75)” and 0.01 to 0.1 µM.

Turning to `CC(C)NC(=O)Cn1c(-c2cccc(Cl)c2)nc2ccc(C3CC3CN3CCCCC3)cc2c1=O` (centres unmarked) [Example 4, 2-[2-(3-Chlorophenyl)-4-oxo-6-[2-(1-piperidylmethyl)cyclopropyl]quinazolin-3-yl]-N-isopropyl-acetamide], the “Ki(h-V1a)/Ki(h-V1b)” value in experiment [1] is reported as “+++ (>75)”. Besides, the Ki in experiment [2] lay within 0.01 to 0.1 µM. The corresponding values for `CC(C)NC(=O)Cn1c(-c2cccc(Cl)c2)nc2ccc([C@H]3C[C@@H](CN4CCC(C#N)CC4)C3)cc2c1=O` [Example 7, Cis-2-[2-(3-Chlorophenyl)-6-[3-[(4-cyano-1-piperidyl)methyl]cyclobutyl]-4-oxo-quinazolin-3-yl]-N-isopropyl-acetamide] are “+++ (>75)” and 0.01 to 0.1 µM.

Take `CC(C)NC(=O)Cn1c(-c2cccc(Cl)c2)nc2ccc([C@H]3C[C@@H](CN4CCSCC4)C3)cc2c1=O` [Example 8, cis-2-[2-(3-Chlorophenyl)-4-oxo-6-[3-(thiomorpholinomethyl)cyclobutyl]quinazolin-3-yl]-N-isopropyl-acetamide]: in experiment [1], the “Ki(h-V1a)/Ki(h-V1b)” value is “+++ (>75)”. The same molecule returned a Ki in experiment [2] below 0.001 µM. For `CC(C)NC(=O)Cn1c(-c2cccc(Cl)c2)nc2ccc([C@H]3C[C@@H](CN4CCCC4)C3)cc2c1=O` [Example 9, cis-2-[2-(3-Chlorophenyl)-4-oxo-6-[3-(pyrrolidin-1-ylmethyl)cyclobutyl]quinazolin-3-yl]-N-isopropyl-acetamide], in that order: “+++ (>75)” and 0.01 to 0.1 µM. Turning to `COC1CCN(C[C@H]2C[C@@H](c3ccc4nc(-c5cccc(Cl)c5)n(CC(=O)NC(C)C)c(=O)c4c3)C2)CC1` [Example 10, cis-2-[2-(3-Chlorophenyl)-6-[3-[(4-methoxy-1-piperidyl)methyl]cyclobutyl]-4-oxo-quinazolin-3-yl]-N-isopropyl-acetamide], the “Ki(h-V1a)/Ki(h-V1b)” value in experiment [1] is recorded as “+++ (>75)”. Besides, the Ki in experiment [2] lay in the range of 0.001 to 0.01 µM.

On to `CC(C)NC(=O)Cn1c(-c2cccc(Cl)c2)nc2ccc([C@H]3C[C@@H](CN4CC[C@@H](F)C4)C3)cc2c1=O` [Example 11, cis-2-[2-(3-Chlorophenyl)-6-[3-[[(3R)-3-fluoropyrrolidin-1-yl]methyl]cyclobutyl]-4-oxo-quinazolin-3-yl]-N-isopropyl-acetamide], for which the “Ki(h-V1a)/Ki(h-V1b)” value in experiment [1] is reported as “+++ (>75)”. The Ki in experiment [2] lay in the range of 0.001 to 0.01 µM.

Consider `CC(C)NC(=O)Cn1c(-c2cccc(Cl)c2)nc2ccc([C@H]3C[C@@H](CN4CCC(F)(F)CC4)C3)cc2c1=O` [Example 12, cis-2-[2-(3-Chlorophenyl)-6-[3-[(4,4-difluoro-1-piperidyl)methyl]cyclobutyl]-4-oxo-quinazolin-3-yl]-N-isopropyl-acetamide], for which, in experiment [1], the “Ki(h-V1a)/Ki(h-V1b)” value is listed as “+++ (>75)”. In experiment [2], this molecule yielded a Ki of 0.001 to 0.01 µM.

As to `CC(C)NC(=O)Cn1c(-c2cccc(Cl)c2)nc2ccc([C@H]3C[C@@H](CN4CCOCC4)C3)cc2c1=O` [Example 13, cis-2-[2-(3-Chlorophenyl)-6-[3-(morpholinomethyl)cyclobutyl]-4-oxo-quinazolin-3-yl]-N-isopropyl-acetamide], the “Ki(h-V1a)/Ki(h-V1b)” value in experiment [1] is “+++ (>75)”. The Ki in experiment [2] fell in the range of 0.001 to 0.01 µM. For the molecule `CCN(CC)C[C@H]1C[C@@H](c2ccc3nc(-c4cccc(Cl)c4)n(CC(=O)NC(C)C)c(=O)c3c2)C1` [Example 15, cis-2-[2-(3-Chlorophenyl)-6-[3-(diethylaminomethyl)cyclobutyl]-4-oxo-quinazolin-3-yl]-N-isopropyl-acetamide], the “Ki(h-V1a)/Ki(h-V1b)” value in experiment [1] was “+++ (>75)”. In experiment [2], this molecule gave a Ki of 0.01 to 0.1 µM.

`CC(C)NC(=O)Cn1c(-c2cccc(Cl)c2)nc2ccc([C@H]3C[C@@H](CN4CC[C@H](F)C4)C3)cc2c1=O` [Example 16, cis-2-[2-(3-Chlorophenyl)-6-[3-[ [(3S)-3-fluoropyrrolidin-1-yl]methyl]cyclobutyl]-4-oxo-quinazolin-3-yl]-N-isopropyl-acetamide]: the “Ki(h-V1a)/Ki(h-V1b)” value in experiment [1] is listed as “+++ (>75)”. In experiment [2], this molecule had a Ki of 0.001 to 0.01 µM. As for `CC(C)NC(=O)Cn1c(-c2cccc(Cl)c2)nc2ccc([C@H]3C[C@@H](CN(C)C)C3)cc2c1=O` [Example 17, cis-2-[2-(3-Chlorophenyl)-6-[3-(dimethylaminomethyl)cyclobutyl]-4-oxo-quinazolin-3-yl]-N-isopropyl-acetamide], the “Ki(h-V1a)/Ki(h-V1b)” value in experiment [1] was “+++ (>75)”. In experiment [2], this molecule had a Ki of 0.01 to 0.1 µM. `CC(C)NC(=O)Cn1c(-c2cccc(Cl)c2)nc2ccc([C@H]3C[C@@H](CN4CC=CCC4)C3)cc2c1=O` [Example 18, cis-2-[2-(3-Chlorophenyl)-6-[3-(3,6-dihydro-2H-pyridin-1-ylmethyl)cyclobutyl]-4-oxo-quinazolin-3-yl]-N-isopropyl-acetamide]: the “Ki(h-V1a)/Ki(h-V1b)” value in experiment [1] was “+++ (>75)”. Besides, in experiment [2], the Ki lay within 0.001 to 0.01 µM. For `CC(C)NC(=O)Cn1c(-c2cccc(Cl)c2)nc2ccc([C@H]3C[C@@H](CN4CC(F)C4)C3)cc2c1=O` [Example 19, cis-2-[2-(3-Chlorophenyl)-6-[3-[(3-fluoroazetidin-1-yl)methyl]cyclobutyl]-4-oxo-quinazolin-3-yl]-N-isopropyl-acetamide], in that order: “+++ (>75)” and 0.001 to 0.01 µM. For `CCOC1CCN(C[C@H]2C[C@@H](c3ccc4nc(-c5cccc(Cl)c5)n(CC(=O)NC(C)C)c(=O)c4c3)C2)CC1` [Example 20, cis-2-[2-(3-Chlorophenyl)-6-[3-[(4-ethoxy-1-piperidyl)methyl]cyclobutyl]-4-oxo-quinazolin-3-yl]-N-isopropyl-acetamide], the “Ki(h-V1a)/Ki(h-V1b)” value in experiment [1] is “+++ (>75)”. The Ki in experiment [2] was in the range of 0.01 to 0.1 µM. As to `CC(C)NC(=O)Cn1c(-c2cccc(Cl)c2)nc2ccc([C@H]3C[C@@H](CN4CCCCCC4)C3)cc2c1=O` [Example 21, cis-2-[6-[3-(Azepan-1-ylmethyl)cyclobutyl]-2-(3-chlorophenyl)-4-oxo-quinazolin-3-yl]-N-isopropyl-acetamide], in experiment [1], the “Ki(h-V1a)/Ki(h-V1b)” value is reported as “+++ (>75)”. This molecule also showed a Ki in experiment [2] of 0.001 to 0.01 µM. In experiment [2], `CC(C)NC(=O)Cn1c(-c2cccc(Cl)c2)nc2ccc([C@H]3C[C@@H](CN4CC(O)C4)C3)cc2c1=O` [Example 40, cis-2-[2-(3-Chlorophenyl)-6-[3-[(3-hydroxyazetidin-1-yl)methyl]cyclobutyl]-4-oxo-quinazolin-3-yl]-N-isopropyl-acetamide] gave a Ki of 0.001 to 0.01 µM.

Usually Ki stands for a dissociation constant, usually derived from enzyme kinetics or from competition with a known ligand. Lower therefore signals a stronger hold on the target.
